In the supplement of paper PMC10307832:

Columns and labels:
Assay in all cases: relative viability (nuclei count vs DMSO), 5 days (fraction); higher = more cells survive
[1] = compound: CC1=CC(=CC=C1)NC2=NC(=CS2)C3=CC=NC=C3 + CS(=O)(=O)CCNCc1ccc(-c2ccc3ncnc(Nc4ccc(OCc5cccc(F)c5)c(Cl)c4)c3c2)o1 [Lapatinib] (partner 2 µM)
Outline: (§1)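 Lung cancer cell lines were seeded in 1536-well plates and dosed by pin tool the next day, with either a single drug or a fixed anchor-drug dose combined with five library-drug doses (not always all listed) spaced in √10 steps. Five days later, one step fixed the cells and stained their nuclei (final 0.05% Triton X-100, 1% formaldehyde, 1 ug/ml Hoechst), and nuclei were counted on 4× images. Relative viability is the nuclei count in treated wells divided by the count in vehicle wells, and each value is the median of duplicate plates.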

[2] = compound: Cc1ccc(NC(=O)c2ccc(CN3CCN(C)CC3)cc2)cc1Nc1nc(-c2cccnc2)cs1 [Masitinib] + Cc1cc(Nc2cc(N3CCN(C)CC3)nc(Sc3ccc(NC(=O)C4CC4)cc3)n2)n[nH]1 [Tozasertib] (partner 0.1 µM)
Outline: as §1

[3] = compound: Cc1ccc(NC(=O)c2ccc(CN3CCN(C)CC3)cc2)cc1Nc1nc(-c2cccnc2)cs1 [Masitinib] + Cc1nc(NC(=O)N2CCC[C@H]2C(N)=O)sc1-c1ccnc(C(C)(C)C(F)(F)F)c1 [Alpelisib] (partner 2 µM)
Outline: as §1

[4] = compound: Cc1ccc(NC(=O)c2ccc(CN3CCN(C)CC3)cc2)cc1Nc1nc(-c2cccnc2)cs1 [Masitinib] + O=C(c1cc(Cc2n[nH]c(=O)c3ccccc23)ccc1F)N1CCN(C(=O)C2CC2)CC1 [Olaparib] (partner 8 µM)
Outline: as §1

Row | Cell Line | relative viability ([1]; first compound 0.08 µM) | relative viability ([1]; first compound 0.253 µM) | relative viability ([1]; first compound 0.8 µM) | relative viability ([1]; first compound 2.53 µM) | relative viability ([1]; first compound 8 µM) | relative viability ([2]; first compound 0.01 µM) | relative viability ([2]; first compound 0.03162 µM) | relative viability ([2]; first compound 0.1 µM) | relative viability ([2]; first compound 0.3162 µM) | relative viability ([2]; first compound 1 µM) | relative viability ([3]; first compound 0.01 µM) | relative viability ([3]; first compound 0.03162 µM) | relative viability ([3]; first compound 0.1 µM) | relative viability ([3]; first compound 0.3162 µM) | relative viability ([3]; first compound 1 µM) | relative viability ([4]; first compound 0.01 µM) | relative viability ([4]; first compound 0.03162 µM) | relative viability ([4]; first compound 0.1 µM) | relative viability ([4]; first compound 0.3162 µM) | relative viability ([4]; first compound 1 µM)
1 | HOP-62 | 0.94 | 1.02 | 1.2 | 1 | 0.909 | 0.366 | 0.349 | 0.408 | 0.414 | 0.395 | 0.777 | 1.09 | 1.18 | 1.07 | 0.83 | 0.312 | 0.819 | 0.451 | 0.289 | 0.418
2 | LC-2-ad | 0.953 | 0.86 | 0.948 | 0.853 | 0.788 | 0.426 | 0.443 | 0.435 | 0.391 | 0.384 | 0.866 | 0.822 | 0.843 | 0.815 | 0.844 | 0.708 | 0.715 | 0.719 | 0.702 | 0.73
3 | LCLC-97TM1 | – | – | 1.04 | 1.03 | 1.27 | – | 0.38 | 0.261 | 0.247 | 0.286 | 0.25 | 0.241 | 0.275 | 0.402 | 0.27 | 0.402 | 0.396 | 0.406 | 0.473 | 0.427
4 | LK-2 | 0.784 | 0.903 | 1.09 | – | 1.33 | 0.177 | 0.167 | 0.177 | 0.158 | 0.165 | 1.28 | 0.609 | 1.38 | 1.15 | 1.3 | 0.8 | 0.679 | 1.01 | 0.615 | 0.7
5 | LOU-NH91 | 0.576 | 0.613 | 0.686 | 0.705 | 0.551 | 0.641 | 0.666 | 0.728 | 0.588 | 0.626 | 0.711 | 0.662 | 0.819 | 0.683 | 0.713 | 0.883 | 0.917 | 0.902 | 0.869 | 0.908
6 | LU99A | – | 1.02 | 1.01 | 0.903 | 0.868 | 0.289 | 0.221 | 0.282 | 0.269 | 0.257 | 0.554 | 0.544 | 0.549 | 0.547 | 0.449 | 0.27 | 0.276 | 0.246 | 0.255 | 0.269
7 | LXF-289 | 0.815 | 0.93 | 0.938 | 0.823 | 0.807 | 0.214 | 0.174 | 0.2 | 0.232 | 0.177 | 0.886 | 1.01 | 1.03 | 1 | 1.02 | 0.948 | 0.99 | 1.06 | 1.04 | 1.02
8 | NCI-H23 | 0.971 | 1.07 | 1.01 | 1 | 0.894 | 0.336 | 0.313 | 0.4 | 0.223 | 0.263 | 0.639 | 0.49 | 0.659 | 0.579 | 0.669 | 0.294 | 0.256 | 0.295 | 0.242 | 0.264
9 | NCI-H322M | 0.538 | 0.518 | 0.519 | 0.572 | 0.662 | 0.452 | 0.513 | 0.485 | 0.449 | 0.467 | 0.782 | 0.778 | 0.932 | 0.763 | 0.793 | 0.733 | 0.726 | 0.857 | 0.729 | 0.128
10 | NCI-H358 | 0.433 | 0.476 | 0.554 | 0.607 | 0.604 | 0.118 | 0.0987 | 0.114 | 0.113 | 0.104 | 0.734 | 0.802 | 0.813 | 0.788 | 0.852 | 0.549 | 0.621 | 0.603 | 0.604 | 0.607
11 | NCI-H460 | 0.875 | 0.901 | 0.887 | 1.11 | 0.692 | 0.288 | 0.4 | 0.313 | 0.0644 | 0.168 | 0.479 | 0.522 | 0.521 | 0.429 | 0.471 | 0.38 | 0.381 | 0.436 | 0.463 | 0.415
12 | NCI-H520 | 0.883 | 0.827 | 0.932 | 0.777 | 0.954 | 0.368 | 0.476 | 0.566 | 0.451 | 0.358 | 0.914 | – | 0.966 | 0.826 | 1.02 | 0.305 | 0.409 | 0.362 | 0.332 | 0.277
13 | NCI-H596 | 0.854 | 0.974 | 0.819 | 0.94 | 1.01 | 0.972 | 0.73 | 1.07 | 1.08 | 0.716 | 0.341 | 0.462 | 0.625 | 0.397 | 0.435 | 0.593 | 0.657 | 0.634 | 0.581 | 0.633
14 | NCI-H647 | 0.958 | 0.977 | 0.849 | 0.932 | 0.917 | 0.212 | 0.209 | 0.394 | 0.261 | 0.232 | 1.08 | 1.26 | 1.19 | 1.28 | 1.1 | 0.572 | 0.408 | 0.789 | 0.596 | 0.642
15 | NCI-H650 | 0.708 | 0.815 | 1.32 | – | 0.975 | 0.642 | 0.732 | 0.717 | 0.745 | 0.665 | 1.14 | 1.03 | 1.17 | 1.31 | 1.08 | 0.41 | 0.386 | 0.422 | 0.394 | 0.324
16 | NCI-H661 | 0.481 | 0.506 | 0.573 | 0.468 | 0.507 | 0.338 | 0.372 | 0.344 | 0.342 | 0.363 | 0.748 | 0.577 | 0.623 | 0.384 | 0.47 | 0.722 | 0.779 | 0.802 | 0.731 | 0.711
